Laboratory results published in US20140221210A1, “ACYL-HOMOSERINE LACTONE DERIVATIVES FOR IMPROVING PLANT YIELD” (priority 2011, published 2014).

Tests used:
[1] = test system: maize roots inoculated with arbuscular mycorrhizal fungi; assay: Greenhouse experiment on maize under low phosphate conditions (mycorrhization of roots); type: in vivo; conditions: maize seed treatment 0.1 mg/ha, AMF inoculum, low phosphate (20 μM), 6 weeks greenhouse, trypan blue staining
Procedure: Test is performed in the greenhouse. 5 maize seeds per treatment were sown in 500 ml rose pots (7×7×18 cm) containing a mix of sand and perlite (1:1). 3 replicates were made. The active ingredient was solved in a DMSO and seed treatment was performed with lab equipment. To inoculate with arbuscular mycorrhizal fungi, 8 ml inoculum (AMykor GmbH; Germany) were mixed with 1 l of the sand-perlite mixture. Seeds were covered by 3 cm of LECA (light expanded clay aggregate). Pots were incubated in the greenhouse for 6 weeks at 21.5° C./14° C. (day/night) and 80% relative humidity. Once a week plants were watered with nutrient solution (half concentrated Hoagland solution (Hoagland and Arnon, 1950)) containing only a low concentration of phosphate (20 μM). Assessment consisted of mycorrhization of roots. Mycorrhization was evaluated after trypan blue staining by microscopy. Controls are performed in the same conditions in the absence of the active ingredient.

[2] = test system: Maize plants; assay: Greenhouse experiment on maize (SPAD chlorophyll reading); type: in vivo; conditions: seeds soaked, 0.1 mg/ha, 45 days after seeding, average of 4 replicates
Procedure: Test is performed under greenhouse conditions. Plants were grown in pots on a growth bench in the greenhouse at constant air temperature of 25° C. (day) and 20° C. (night) and 65% relative humidity. Plants were regularly watered with ½ strength Hoagland's solution containing nitrogen (Hoagland and Arnon, 1950) as needed. Maize seeds were carefully surface sterilized in 2% sodium hypochlorite for 3 min. followed by several rinsing with sterile distilled water (Bhuvaneswari et al. 1980). Seeds were directly sown in pots ([…]) containing a mixture of sand and turface (2:1, v/v) (2.5 L in each pot. Five seeds were put in each pot. The seeds were covered gently with the potting mixture and kept on the growth bench. After counting emergence, seedlings were thinned to one seedling per pot. Before sowing, seeds were soaked in solution containing the active ingredient at the desired concentration for at least two hours. The plants were allowed to grow for 45 days after seeding and were then harvested for final data collection. Data were collected on the SPAD meter readings (leaf greenness measurements (chlorophyll content); SPAD-502 Chlorophyll Meter (Konica Minolta Sensing Inc., Japan)

[3] = test system: AMF spores; assay: Arbuscular mycorrhizal fungi (AMF) spore germination experiment; type: cell-based; conditions: 10^−8M in M-medium, 26.5° C. dark, average of 3 replicates
Procedure: Test is performed under lab conditions. The active ingredient was solved in a solvent (acetone) and added to warm culture medium (M-medium; Bécard et Fortin, 1988) to obtain a final concentration of 10^−8M. After filling the culture medium in 24-well plates, AMF spores were deposited on the surface of culture medium. Plates were incubated at 26.5° C. in the dark. Assessment consisted of counting of germinated spores 3 and 4 days after application (daa).

[4] = test system: Maize seeds; assay: Germination test on maize seeds; type: in vivo; conditions: agar plates, 10° C. dark, 5 replicates of 20 seeds
Procedure: (§1) The test is performed under lab conditions. Soybean and maize seeds, treated with the active ingredient solved in DMSO and diluted with water to the desired dosages, are placed on sterile agar plates (0.5% agar in water). Covered plates are incubated at 7.5° C. and 10° C. respectively in the dark. Wheat seeds, treated with the active ingredient, solved in DMSO and diluted with water to the desired dosages, are placed on sterile agar plates (1% agar in water). Covered plates are incubated at 7.5° C. in the dark. Controls are performed in the same conditions in the absence of the active ingredient. Assessment consisted of counting germinated seeds per plate at different time points.

[5] = test system: Soybean seeds; assay: Germination test on soybean seeds; type: in vivo; conditions: agar plates, 7.5° C. dark, 5 replicates of 20 seeds
Procedure: as §1

[6] = test system: Wheat seeds; assay: Germination test on wheat seeds; type: in vivo; conditions: agar plates, 7.5° C. dark, 5 replicates of 20 seeds
Procedure: as §1

[7] = test system: Spring wheat; assay: Spring wheat field trial (2010); type: in vivo; conditions: seed treatment of spring wheat, result in words
Procedure: Maize and wheat field trials were conducted in order to evaluate several assessments including the weight of plant (leaf+roots), the formation of mycorrhiza, and yield parameters like the weight of grains per plot in tons per ha and the 1000 kernel weight. In addition to the tested compounds, a basic treatment of fungicides was also applied on the seeds. The tested active ingredients were pre-diluted in DMSO and applied on seeds in tank mix with fungicides. Spring wheat: Germany (Monheim), soil description: sandy loam, phosphor 11 mg/100 g soil, potassium 14 mg/100 g soil, magnesium 8 mg/100 g soil, organic matter 1.2%, pH 6.4. Sowing date: 2010-04-01 In both crops no phosphate or potassium fertilizer were applied. Compound A1: 0.1 and 1 milligrams active ingredient per hectare Base: Fungicide: Fluoxastrobin+Prothioconazole+Tebuconazole FS 80/Dosage: 5.6+5.6+0.747 grams active ingredient per 100 kg seeds. The following yield parameters were assessed: tons per hectare (for wheat only), TKW=1000 kernel weight. Mycorrhization of roots of spring wheat plants was assessed by trypan blue staining followed by microscopy.

[8] = test system: Glomus intraradices / Medicago truncatula plantlets; assay: In vitro phosphate (33P) transport to host plant by mycorrhizal fungi; type: in vivo; conditions: 96 hours after addition of 33P, average of 4 replicates
Procedure: One-week-old Medicago truncatula plantlets were transferred in the AM-P in vitro culture systems (details on AM-P systems see: H. Dupré Boulois et al., 2006). The roots were placed in the root compartment (RC) on the surface of the solid MSR medium (Declerck et al., 2003) lacking vitamins and sucrose. The RC was filled with 25 ml and the hyphal compartment (HC) with 20 ml of solid MSR medium, lacking sucrose, vitamins and solidified with 3 g l^−1 Phytagel.
Roots of M. truncatula plantlets were subsequently inoculated with the spores (±100) of Glomus intraradices. The bi-compartmented Petri plates of the AM-P in vitro culture systems were then sealed using Parafilm (Pechiney, Menasha, Wis., USA) and wrapped in black plastic bags to maintain roots and the G. intraradices in the dark. The AM-P in vitro culture systems were subsequently incubated in a controlled environment chamber (20° C., 16 h photoperiod). The AMP in vitro culture systems were supplied weekly with 5 ml of MSR medium up to 2 weeks before radio-isotopic labelling (10 weeks after inoculation).
Three weeks after inoculation, AM fungal mycelium started to contact the roots and to develop in the entire volume of the RCs. Between week 5 and 7, the mycelium crossed the partition wall between the RCs and HCs and started to develop in the HCs. The roots that crossed the plastic barrier were trimmed to leave the HC void of roots. Eight weeks after inoculation, the medium contained in the HCs was removed and then replaced by fresh MSR medium, lacking sucrose, vitamins and solidified with 3 g l^−1 Phytagel. In this medium, the active ingredient at the desired concentrations (in 0.1% acetone) was also added. The mycelium started immediately to re-grow into the fresh medium containing the active ingredient. At time of labeling, the mycelium in the HCs was 2 weeks-old.
Ten weeks after beginning of the experiment (i.e. 2 weeks after initiation of hyphal development in the HCs containing the active ingredient), filter-sterilized (Acrodisc® Syringe Filters, PALL Corporation, Ann Arbor, Mich., USA) phosphorus (^33P) was added in the HCs (489520+/−12080 CPM per systems). The source of ^33P was orthophosphate in dilute hydrochloric acid (<0.1 M) supplied by Amersham Pharmacia Biotech (Buckinghamshire, UK). A control treatment was included. Four replicates were considered per treatment.
At the end of the experiment (i.e. 96 hours after the addition of ^33P), the shoots of M. truncatula were collected by cutting the shoots at the level of the solidified MSR medium contained in the RCs. The roots were then removed from the solidified MSR medium and cleaned-free from the remaining gel and extraradical mycelium. Root and shoots were oven dried (60° until constant weight) and weighted. […]

[9] = test system: Soybean plants; assay: Greenhouse experiment on soybean inoculated with Bradyrhizobium japonicum; type: in vivo
Procedure: Test is performed under greenhouse conditions. The experiment was conducted at a constant air temperature of 25° C. (day) and 20° C. (night) and 65% relative humidity. Plants were regularly watered with ½ strength Nitrogen free Hoagland's solution (Hoagland and Arnon, 1950) as needed.
Initial culture of Bradyrhizobium japonicum was prepared by inoculating single cell colonies from petri plates in 200 mL Yeast Extract Mannithol (YEM) broth (pH 6.8) and incubated at 28° C. and shaken at 150 rpm until an OD600 of 0.2-0.3 is achieved (2-3 days). Absorbance (A600 nm) of the bacterial cultures was determined using a spectrophotometer. The culture was diluted to an OD600 of 0.08 and 1 mL of this culture was used for inoculation onto seeds of all treatments.
Soybean seeds were surface sterilized in 2% sodium hypochlorite for 3 min and then rinsed several times with distilled water (Bhuvaneswari et al. 1980). Seeds were directly sown in pots (130 mm diameter) containing a mixture of sand and turface (2:1, v/v). Five soybean seeds were put in each. Before sowing seeds were soaked in solution containing the active ingredient at the desired concentration for at least two hours. Bradyrhizobium japonicum inoculant prepared as described above was inoculated onto soybean seeds by pipetting 1 mL of diluted culture onto each seed. The seeds were covered gently with the potting mixture, kept on the growth bench. After monitoring emergence, seedlings were thinned to one seedling per pot.
The plants were allowed to grow for 45 days after seeding and were then harvested for final data collection. Data were collected on the following variables: • 1. SPAD meter readings (leaf greenness measurements (chlorophyll content); SPAD-502 Chlorophyll Meter (Konica Minolta Sensing Inc., Japan) • 2. Number of nodules per plant • 3. Nodule dry weight

[10] = test system: Arabidopsis root; conditions: literature report (Planta, 2008); cited from earlier work
[11] = soybean, seeds soaked, 0.1 mg/ha, 45 days after seeding, average of 4 replicates

SMILES	Mycorrhization [1] [%]	SPAD [2]	Germination rate 3 daa ([3]; 3 days after application) [%]	Germination rate 4 daa ([3]; 4 days after application) [%]	Maize Germination rate 6 daa ([4]; seed treatment 0.1 mg/ha) [%]	Maize Germination rate 6 daa ([4]; seed treatment 1 mg/ha) [%]	Soybean Germination rate 7 daa ([5]; seed treatment 0.1 mg/ha) [%]	Soybean Germination rate 7 daa ([5]; seed treatment 1 mg/ha) [%]	Wheat Germination rate 3 daa ([6]; seed treatment 0.1 mg/ha) [%]	Wheat Germination rate 3 daa ([6]; seed treatment 1 mg/ha) [%]	yield [7]	^33P counting root ([8]; 10^−6 M in hyphal compartment)	^33P counting shoot ([8]; 10^−6 M in hyphal compartment)	^33P counting root ([8]; 10^−7 M in hyphal compartment)	^33P counting shoot ([8]; 10^−7 M in hyphal compartment)	biomass (root and shoot) ([9]; soybean seeds treated, greenhouse, comparatively to the control, figures not given)	Nodule weight (dry) [9, 11] [g]	Number of nodules [9, 11]	SPAD [9, 11]	Arabidopsis root length [10]
CCCCCC(=O)CC(=O)NC1CCOC1=O (centres unmarked) [Compound A1]	4.3	42	58	78	95	94	77	84	52	69	significative yield increase	121485.7	61277.6	111374.4	70473.9	increase of biomass (root and shoot)	0.180	84	34	–
CCCCCC(=O)NC1CCOC1=O (centres unmarked) [N-hexanoyl-d1-homoserine-lactone]	–	–	–	–	–	–	–	–	–	–	–	–	–	–	–	–	–	–	–	small increase
